PubChem BioAssay (NCI)
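Interpolation was linear, between the two tested concentrations surrounding the appropriate level; five concentrations were tested over 48 hours in 96-well plates. GI50 is the concentration that inhibits growth by half. TGI denotes the concentration required for complete inhibition of growth.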

How the values were obtained:
Assay in all cases: inhibition of tumour cell growth, NCI panel, 48 h
NCI-H460 lung = tested on: NCI-H460 lung
HL-60(TB) leukemia = tested on: HL-60(TB) leukemia
LXFL 529 NSCLC = tested on: LXFL 529 NSCLC
SR leukemia = tested on: SR leukemia
HOP-92 NSCLC = tested on: HOP-92 NSCLC
NCI-H226 lung = tested on: NCI-H226 lung
MOLT-4 leukemia = tested on: MOLT-4 leukemia
M14 melanoma = tested on: M14 melanoma
786-0 renal = tested on: 786-0 renal
XF 498 CNS = tested on: XF 498 CNS
SK-MEL-5 melanoma = tested on: SK-MEL-5 melanoma
MCF7 breast = tested on: MCF7 breast
SN12C renal = tested on: SN12C renal
DMS 114 small cell lung = tested on: DMS 114 small cell lung
SF-539 CNS = tested on: SF-539 CNS
NCI-H522 lung = tested on: NCI-H522 lung
HS 578T breast = tested on: HS 578T breast
SW-620 colon = tested on: SW-620 colon
UACC-257 melanoma = tested on: UACC-257 melanoma
NCI/ADR-RES ovarian = tested on: NCI/ADR-RES ovarian
HCC-2998 colon = tested on: HCC-2998 colon
TK-10 renal = tested on: TK-10 renal
IGROV1 ovarian = tested on: IGROV1 ovarian
BT-549 breast = tested on: BT-549 breast
HCT-15 colon = tested on: HCT-15 colon
DMS 273 small cell lung = tested on: DMS 273 small cell lung
SNB-75 CNS = tested on: SNB-75 CNS
RXF 393 renal = tested on: RXF 393 renal
U251 CNS = tested on: U251 CNS
KM12 colon = tested on: KM12 colon
HT29 colon = tested on: HT29 colon
MDA-N = tested on: MDA-N
DLD-1 colon = tested on: DLD-1 colon
MALME-3M melanoma = tested on: MALME-3M melanoma
SNB-78 CNS = tested on: SNB-78 CNS
PC-3 prostate = tested on: PC-3 prostate
ACHN renal = tested on: ACHN renal
MDA-MB-231 breast = tested on: MDA-MB-231 breast
HOP-62 NSCLC = tested on: HOP-62 NSCLC
COLO 205 colon = tested on: COLO 205 colon
EKVX NSCLC = tested on: EKVX NSCLC
DU-145 prostate = tested on: DU-145 prostate
OVCAR-5 ovarian = tested on: OVCAR-5 ovarian
T-47D breast = tested on: T-47D breast
UO-31 renal = tested on: UO-31 renal
OVCAR-8 ovarian = tested on: OVCAR-8 ovarian
UACC-62 melanoma = tested on: UACC-62 melanoma
K-562 leukemia = tested on: K-562 leukemia
CAKI-1 renal = tested on: CAKI-1 renal
SK-MEL-28 melanoma = tested on: SK-MEL-28 melanoma
A549 NSCLC = tested on: A549 NSCLC
SF-295 CNS = tested on: SF-295 CNS
OVCAR-4 ovarian = tested on: OVCAR-4 ovarian
CCRF-CEM leukemia = tested on: CCRF-CEM leukemia
SNB-19 CNS = tested on: SNB-19 CNS
KM20L2 colon = tested on: KM20L2 colon
SF-268 CNS = tested on: SF-268 CNS
HCT-116 colon = tested on: HCT-116 colon
M19-MEL melanoma = tested on: M19-MEL melanoma
SK-OV-3 ovarian = tested on: SK-OV-3 ovarian
A498 renal = tested on: A498 renal
NCI-H23 lung = tested on: NCI-H23 lung
RPMI-8226 leukemia = tested on: RPMI-8226 leukemia
SK-MEL-2 melanoma = tested on: SK-MEL-2 melanoma
MDA-MB-435 = tested on: MDA-MB-435
LOX IMVI melanoma = tested on: LOX IMVI melanoma
OVCAR-3 ovarian = tested on: OVCAR-3 ovarian

SMILES: COC(=O)N/N=C(/CC1(O)C(=O)Nc2ccc([N+](=O)[O-])cc21)c1ccccc1 (stereo unspecified)
- TGI (NCI-H460 lung): > 100 µM
- TGI (HL-60(TB) leukemia): 58.8 µM
- TGI (LXFL 529 NSCLC): > 100 µM
- TGI (SR leukemia): > 68.3 µM
- TGI (HOP-92 NSCLC): > 100 µM
- TGI (NCI-H226 lung): 98.3 µM
- TGI (MOLT-4 leukemia): > 66.7 µM
- TGI (M14 melanoma): > 64.8 µM
- TGI (786-0 renal): > 54.4 µM
- TGI (XF 498 CNS): 46.5 µM
- TGI (SK-MEL-5 melanoma): > 60.9 µM
- TGI (MCF7 breast): 5.61 µM
- TGI (SN12C renal): > 100 µM
- TGI (DMS 114 small cell lung): > 100 µM
- TGI (SF-539 CNS): > 100 µM
- TGI (NCI-H522 lung): > 75.9 µM
- TGI (HS 578T breast): 73.3 µM
- TGI (SW-620 colon): > 69.4 µM
- TGI (UACC-257 melanoma): > 95.6 µM
- TGI (NCI/ADR-RES ovarian): 55.7 µM
- TGI (HCC-2998 colon): > 100 µM
- TGI (TK-10 renal): 57.6 µM
- TGI (IGROV1 ovarian): > 73.6 µM
- TGI (BT-549 breast): 92.3 µM
- TGI (HCT-15 colon): > 70.6 µM
- TGI (DMS 273 small cell lung): > 100 µM
- TGI (SNB-75 CNS): 54.9 µM
- TGI (RXF 393 renal): 51.4 µM
- TGI (U251 CNS): 76.9 µM
- TGI (KM12 colon): > 63.7 µM
- TGI (HT29 colon): > 79.4 µM
- TGI (MDA-N): 94.4 µM
- TGI (DLD-1 colon): > 100 µM
- TGI (MALME-3M melanoma): > 75.4 µM
- TGI (SNB-78 CNS): 50.6 µM
- TGI (PC-3 prostate): > 100 µM
- TGI (ACHN renal): > 72.2 µM
- TGI (MDA-MB-231 breast): 44 µM
- TGI (HOP-62 NSCLC): > 90.2 µM
- TGI (COLO 205 colon): > 82.5 µM
- TGI (EKVX NSCLC): > 93.4 µM
- TGI (DU-145 prostate): > 100 µM
- TGI (OVCAR-5 ovarian): > 100 µM
- TGI (T-47D breast): > 100 µM
- TGI (UO-31 renal): 91.6 µM
- TGI (OVCAR-8 ovarian): > 68.5 µM
- TGI (UACC-62 melanoma): > 54.7 µM
- TGI (K-562 leukemia): > 87.2 µM
- TGI (CAKI-1 renal): > 100 µM
- TGI (SK-MEL-28 melanoma): > 70.9 µM
- TGI (A549 NSCLC): > 100 µM
- TGI (SF-295 CNS): 39.2 µM
- TGI (OVCAR-4 ovarian): > 84.7 µM
- TGI (CCRF-CEM leukemia): > 76.6 µM
- TGI (SNB-19 CNS): > 100 µM
- TGI (KM20L2 colon): > 100 µM
- TGI (SF-268 CNS): > 100 µM
- TGI (HCT-116 colon): > 58.6 µM
- TGI (M19-MEL melanoma): > 100 µM
- TGI (SK-OV-3 ovarian): > 100 µM
- TGI (A498 renal): 25.8 µM
- TGI (NCI-H23 lung): > 60.1 µM
- TGI (RPMI-8226 leukemia): 97.2 µM
- TGI (SK-MEL-2 melanoma): > 72.9 µM
- TGI (MDA-MB-435): 57.3 µM
- TGI (LOX IMVI melanoma): 36.1 µM
- TGI (OVCAR-3 ovarian): > 74.6 µM

SMILES: Cc1cc2c(cc1O)[nH]c1cc3c(cc12)C=CC(C)(C)O3
- GI50 (NCI-H460 lung): 5.36 µM
- TGI (NCI-H460 lung): 12.4 µM
- GI50 (HL-60(TB) leukemia): 6.98 µM
- TGI (HL-60(TB) leukemia): > 25 µM
- GI50 (LXFL 529 NSCLC): 9.31 µM
- TGI (LXFL 529 NSCLC): > 25 µM
- GI50 (SR leukemia): 6.39 µM
- TGI (SR leukemia): 24.9 µM
- GI50 (HOP-92 NSCLC): 9.85 µM
- TGI (HOP-92 NSCLC): > 25 µM
- GI50 (NCI-H226 lung): 18.9 µM
- TGI (NCI-H226 lung): > 25 µM
- GI50 (MOLT-4 leukemia): 0.00323 µM
- TGI (MOLT-4 leukemia): > 25 µM
- GI50 (M14 melanoma): 6.07 µM
- TGI (M14 melanoma): 16.9 µM
- TGI (XF 498 CNS): > 25 µM
- GI50 (SK-MEL-5 melanoma): 17.5 µM
- TGI (SK-MEL-5 melanoma): > 25 µM
- GI50 (SN12C renal): 6.32 µM
- TGI (SN12C renal): 18.9 µM
- TGI (DMS 114 small cell lung): > 25 µM
- GI50 (SF-539 CNS): 4.08 µM
- TGI (SF-539 CNS): 9.96 µM
- GI50 (NCI-H522 lung): 8.39 µM
- TGI (NCI-H522 lung): > 25 µM
- GI50 (SW-620 colon): 7.64 µM
- TGI (SW-620 colon): > 25 µM
- GI50 (HCC-2998 colon): 6.73 µM
- TGI (HCC-2998 colon): 14.5 µM
- TGI (TK-10 renal): > 25 µM
- GI50 (IGROV1 ovarian): 22.9 µM
- TGI (IGROV1 ovarian): > 25 µM
- GI50 (HCT-15 colon): 8.73 µM
- TGI (HCT-15 colon): > 25 µM
- GI50 (DMS 273 small cell lung): 5.04 µM
- TGI (DMS 273 small cell lung): 12.2 µM
- GI50 (RXF 393 renal): 4.93 µM
- TGI (RXF 393 renal): 11.5 µM
- GI50 (U251 CNS): 6.06 µM
- TGI (U251 CNS): 14.3 µM
- GI50 (KM12 colon): 5.26 µM
- TGI (KM12 colon): 11.9 µM
- GI50 (HT29 colon): 11.8 µM
- TGI (HT29 colon): > 25 µM
- GI50 (DLD-1 colon): 12.7 µM
- TGI (DLD-1 colon): > 25 µM
- GI50 (MALME-3M melanoma): 10.1 µM
- TGI (MALME-3M melanoma): > 25 µM
- TGI (SNB-78 CNS): > 25 µM
- GI50 (ACHN renal): 9.3 µM
- TGI (ACHN renal): > 25 µM
- GI50 (HOP-62 NSCLC): 7.95 µM
- TGI (HOP-62 NSCLC): 24.4 µM
- TGI (COLO 205 colon): > 25 µM
- TGI (OVCAR-5 ovarian): > 25 µM
- GI50 (UO-31 renal): 11.4 µM
- TGI (UO-31 renal): > 25 µM
- TGI (OVCAR-8 ovarian): 9.41 µM
- GI50 (UACC-62 melanoma): 6.75 µM
- TGI (UACC-62 melanoma): > 25 µM
- TGI (K-562 leukemia): > 25 µM
- GI50 (SK-MEL-28 melanoma): 14.5 µM
- TGI (SK-MEL-28 melanoma): > 25 µM
- GI50 (A549 NSCLC): 6.42 µM
- TGI (A549 NSCLC): 21.6 µM
- TGI (OVCAR-4 ovarian): > 25 µM
- GI50 (CCRF-CEM leukemia): 19.8 µM
- TGI (CCRF-CEM leukemia): > 25 µM
- TGI (SNB-19 CNS): > 25 µM
- GI50 (KM20L2 colon): 9.35 µM
- TGI (KM20L2 colon): > 25 µM
- GI50 (SF-268 CNS): 6.69 µM
- TGI (SF-268 CNS): > 25 µM
- GI50 (HCT-116 colon): 12.8 µM
- TGI (HCT-116 colon): > 25 µM
- GI50 (M19-MEL melanoma): 19.6 µM
- TGI (M19-MEL melanoma): > 25 µM
- TGI (SK-OV-3 ovarian): > 25 µM
- TGI (RPMI-8226 leukemia): > 25 µM
- TGI (SK-MEL-2 melanoma): > 25 µM
- GI50 (LOX IMVI melanoma): 3.95 µM
- TGI (LOX IMVI melanoma): 7.41 µM
- TGI (OVCAR-3 ovarian): 22.6 µM
